Laboratory results as given in patent US20150113683A1, “METHODS FOR PLANT TRANSFORMATION USING SPECTINOMYCIN SELECTION” (Monsanto Technology LLC, priority 2007, published 2015).
Values joined by “and” are separate entries in the source; they are usually repeats but may differ in a detail not shown here. Equal entries are not always repeated.

Experiments:
soybean explants [1] = experiment: Explants on different levels of spectinomycin: GUS-expressing buds and shoots; assay type: cell-based, soybean (Glycine max); details: for % explants with GUS+ shoots/buds / # Explants with GUS+ shoots/buds: 2 mg/L TDZ in co-culture; for # Explants with GUS+ shoots/buds: 25 explants assayed
soybean explants [2] = experiment: Transformation frequency using spectinomycin selection at different levels; assay type: cell-based, soybean (Glycine max)
dry soybean explants [3] = experiment: Transformation frequency of dry soybean explants using glyphosate or spectinomycin as selective agent; assay type: cell-based; details: for % TF: dry soybean explants
dry soybean explants [4] = experiment: Dry soybean embryos, spectinomycin, liquid culture medium: TF with hydration conditions and liquid overlay timing; assay type: cell-based; details: spectinomycin 150 ppm
Description: In these studies, explants were initially hydrated and eventually regenerated on WPM solid media with liquid overlay or WPM liquid medium as above. […] In liquid overlay treatment both solid and liquid culture media were used; liquid medium was dispensed over the top of explants as they were lying on solid medium at a specified time during tissue culture as identified in the Table 30. This was done as a type of media refreshment and avoids the need for transferring explants from old media to new media. In the control treatments, explants were surface plated on a solid WPM medium (Table 2).

[5] = tested on: dry excised soybean explants; experiment: Dry soybean embryos, spectinomycin, whole regenerated explant with pre-culturing step: TF and event quality; assay type: cell-based; details: for % quality events: 1-2 copies of GUS and aadA by Invader assay; for # Events produced / TF % / qTF %: spectinomycin 150 ppm; for Estimated mTF %: marker-free TF, events without the marker gene
[6] = tested on: 3 months stored dry soybean explants; experiment: Stored dry soybean explants, spectinomycin, pre-culture: TF; assay type: cell-based; details: pMON107379
Description: TDZ and lipoic acid were both added to the inoculum and to the co-culture media (INO). The construct, pMON107379, was a conventional 2T vector comprising oriRi and aadA gene, and co-culture was done for 5 days.

[7] = Total over all Spec levels of the experiment (1102: 25-250 mg/L; 1119: 50-250 mg/L)
[8] = first study, spectinomycin selection 25-250 mg/L

CN[C@@H]1[C@H](O)[C@H](NC)[C@H]2O[C@@]3(O)C(=O)C[C@@H](C)O[C@H]3O[C@@H]2[C@H]1O [Spectinomycin, spectinomycin]
% explants with GUS+ shoots/buds (soybean explants [1]; spectinomycin level 25 (mg/L)): 52%
# Explants with GUS+ shoots/buds (soybean explants [1]; spectinomycin level 25 (mg/L)): 13
% explants with GUS+ shoots/buds (soybean explants [1]; spectinomycin level 50): 72%
# Explants with GUS+ shoots/buds (soybean explants [1]; spectinomycin level 50): 18
% explants with GUS+ shoots/buds (soybean explants [1]; spectinomycin level 100): 76%
# Explants with GUS+ shoots/buds (soybean explants [1]; spectinomycin level 100): 19
% explants with GUS+ shoots/buds (soybean explants [1]; spectinomycin level 150): 72%
# Explants with GUS+ shoots/buds (soybean explants [1]; spectinomycin level 150): 18
% explants with GUS+ shoots/buds (soybean explants [1]; spectinomycin level 200): 80%
# Explants with GUS+ shoots/buds (soybean explants [1]; spectinomycin level 200): 20
% explants with GUS+ shoots/buds (soybean explants [1]; spectinomycin level 250): 80%
# Explants with GUS+ shoots/buds (soybean explants [1]; spectinomycin level 250): 20
explants that developed GUS-positive buds and shoots (soybean explants [1]; within two weeks on selective medium, about 22 DAI, TDZ-treated explants): Up to 80%
% TF (transformation frequency) (soybean explants [2]; Spec level 25 mg/L): 19%
Plants tested for transformation, Total (soybean explants [2]; Spec level 25 mg/L): 19
Shoots harvested, % SF (shoot frequency) (soybean explants [2]; Spec level 25 mg/L): 46%
Shoots harvested, Total (soybean explants [2]; Spec level 25 mg/L): 46
% TF (transformation frequency) (soybean explants [2]; Spec level 50 mg/L): 14.7% and 22.2%
Plants tested for transformation, Total (soybean explants [2]; Spec level 50 mg/L): 88 and 48
Shoots harvested, % SF (shoot frequency) (soybean explants [2]; Spec level 50 mg/L): 24.8% and 46.8%
Shoots harvested, Total (soybean explants [2]; Spec level 50 mg/L): 149 and 101
% TF (transformation frequency) (soybean explants [2]; Spec level 100 mg/L): 15.7% and 12.6%
Shoots harvested, % SF (shoot frequency) (soybean explants [2]; Spec level 100 mg/L): 20.5% and 20.6%
% TF (transformation frequency) (soybean explants [2]; Spec level 150 mg/L): 26.1% and 18.3%
Shoots harvested, % SF (shoot frequency) (soybean explants [2]; Spec level 150 mg/L): 35.1% and 20.8%
% TF (transformation frequency) (soybean explants [2]; Spec level 200 mg/L): 14.4% and 12.5%
Shoots harvested, % SF (shoot frequency) (soybean explants [2]; Spec level 200 mg/L): 28.2% and 15.2%
Shoots harvested, Total (soybean explants [2]; Spec level 200 mg/L): 53 and 91
% TF (transformation frequency) (soybean explants [2]; Spec level 250 mg/L): 19.5% and 16.3%
Shoots harvested, % SF (shoot frequency) (soybean explants [2]; Spec level 250 mg/L): 27.5% and 18.0%
Shoots harvested, Total (soybean explants [2]; Spec level 250 mg/L): 55 and 108
% TF (transformation frequency) (soybean explants [2]; [7]): 18.6% and 15.5%
Shoots harvested, % SF (shoot frequency) (soybean explants [2]; [7]): 33.3% and 19.9%
Shoots harvested, Total (soybean explants [2]; [7]): 330 and 596
average transformation frequency (soybean explants [2]; [8]): 18.6%
transformation frequency, range (soybean explants [2]; [8]): 12.6-26.1%
plants later shown to be transformed (soybean explants [2]; of the first 32 plants tested to confirm transformation, one escape): 31
transformation frequencies (dry soybean explants [3]; 150 ppm spectinomycin, dry excised soybean embryos, 1 hr hydration in INO, 4 days co-culture, two different studies): 25.05% and 19.27%
% TF (dry soybean explants [3]; Spectinomycin 25 ppm in regeneration medium): 4.66%
% TF (dry soybean explants [3]; Spectinomycin 50 ppm in regeneration medium): 4.24%
% TF (dry soybean explants [3]; Spectinomycin 100 ppm in regeneration medium): 6.34%
% TF (dry soybean explants [3]; Spectinomycin 200 ppm in regeneration medium): 5.99%
TF % (mean of 3 repeats) (dry soybean explants [4]; Treatment 1-Control, hydration medium INO, incubation with Agrobacteria 0 minutes, surface plated on solid WPM): 3.10%
TF % (mean of 3 repeats) (dry soybean explants [4]; Treatment 2, hydration medium BGM w/o cefotaxime, incubation with Agrobacteria 0 minutes): 14.67%
TF % (mean of repeats) (dry soybean explants [4]; Treatment 2, no liquid overlay, Oasis Wedge transfer for regeneration): 14.67%
TF % (mean of 3 repeats) (dry soybean explants [4]; Treatment 3, hydration medium BGM w/o cefotaxime, incubation with Agrobacteria 15 minutes): 15.45%
TF % (mean of repeats) (dry soybean explants [4]; Treatment 3, liquid overlay 3 weeks post inoculation, 5 mLs on solid WPM, Oasis Wedge transfer): 15.45%
TF % (mean of 3 repeats) (dry soybean explants [4]; Treatment 4, hydration medium BGM w/o cefotaxime, incubation with Agrobacteria 30 minutes): 18.50%
TF % (mean of repeats) (dry soybean explants [4]; Treatment 4, liquid overlay 3 weeks post inoculation, 10 mLs on solid WPM, Oasis Wedge transfer): 18.50%
TF % (mean of 3 repeats) (dry soybean explants [4]; Treatment 5, hydration medium INO, incubation with Agrobacteria 0 minutes): 13.98%
TF % (mean of repeats) (dry soybean explants [4]; Treatment 5, liquid overlay 4 weeks post inoculation, 5 mLs on solid WPM, Oasis Wedge transfer): 13.98%
TF % (mean of 3 repeats) (dry soybean explants [4]; Treatment 6, hydration medium INO, incubation with Agrobacteria 15 minutes): 9.64%
TF % (mean of repeats) (dry soybean explants [4]; Treatment 6, liquid overlay 4 weeks post inoculation, 10 mLs on solid WPM, Oasis Wedge transfer): 9.64%
TF % (mean of 3 repeats) (dry soybean explants [4]; Treatment 7, hydration medium INO, incubation with Agrobacteria 30 minutes): 13.79%
TF % (mean of repeats) (dry soybean explants [4]; Treatment Control-1, liquid overlay NA, overlay volume None, no Oasis Wedge transfer): 8.00%
% quality events ([5]; Dry Excised - 2T/OriRi, 14 events assayed): 28.6%
# Events produced ([5]; Dry Excised - 2T/OriRi, 161 explants): 15
Estimated mTF % ([5]; Dry Excised - 2T/OriRi): 0.45%
TF % ([5]; Dry Excised - 2T/OriRi): 9.32 +/− 7.38%
qTF % ([5]; Dry Excised - 2T/OriRi): 2.5%
% quality events ([5]; Dry Excised - 2T/OriV, 32 events assayed): 21.9%
# Events produced ([5]; Dry Excised - 2T/OriV, 260 explants): 34
Estimated mTF % ([5]; Dry Excised - 2T/OriV): 0.62%
TF % ([5]; Dry Excised - 2T/OriV): 13.1 +/− 0.17%
qTF % ([5]; Dry Excised - 2T/OriV): 2.7 +/− 0.23%
% quality events ([5]; Pre-cultured Dry - 2T/OriRi, 64 events assayed): 20.3%
# Events produced ([5]; Pre-cultured Dry - 2T/OriRi, 336 explants, pre-culture 5 days 23° C. dark in BGM): 66
Estimated mTF % ([5]; Pre-cultured Dry - 2T/OriRi): 0.7%
TF % ([5]; Pre-cultured Dry - 2T/OriRi, pre-culture 5 days 23° C. dark in BGM): 19.64 +/− 1.97%
qTF % ([5]; Pre-cultured Dry - 2T/OriRi): 3.9 +/− 1.22%
% quality events ([5]; Pre-cultured Dry - 2T/OriV, 311 events assayed): 24.4%
# Events produced ([5]; Pre-cultured Dry - 2T/OriV, 1641 explants, pre-culture 5 days 23° C. dark in BGM): 319
Estimated mTF % ([5]; Pre-cultured Dry - 2T/OriV): 1.1%
TF % ([5]; Pre-cultured Dry - 2T/OriV, pre-culture 5 days 23° C. dark in BGM): 19.4 +/− 5.42%
qTF % ([5]; Pre-cultured Dry - 2T/OriV): 4.6 +/− 1.35%
R0 plants ([6]; Fresh Dry Explants, no pre-culture step, 375 explants): 24
TF ([6]; Fresh Dry Explants, no pre-culture step): 6.40%
R0 plants ([6]; Fresh Dry Explants, pre-culture step 5 days 23° C. dark in BGM, 1008 explants): 112
TF ([6]; Fresh Dry Explants, pre-culture step 5 days 23° C. dark in BGM): 11.11%
R0 plants ([6]; Stored Dry Explants (3 months), no pre-culture step, 678 explants): 71
TF ([6]; Stored Dry Explants (3 months), no pre-culture step): 10.47%
R0 plants ([6]; Stored Dry Explants (3 months), pre-culture step 5 days 23° C. dark in BGM, 901 explants): 129
TF ([6]; Stored Dry Explants (3 months), pre-culture step 5 days 23° C. dark in BGM): 14.32%
R0 plants ([6]; Wet Excised explants, no pre-culture step, 263 explants): 75
TF ([6]; Wet Excised explants, no pre-culture step): 28.52%
